For 21 molecules, IC50 results are on record in patent US12286424B2, “Small molecule inhibitors of galectin-3” (BRISTOL-MYERS SQUIBB COMPANY, priority 2020, dated 2025).

Structures are written as SMILES.

T1 sequence (P17931 whole entry): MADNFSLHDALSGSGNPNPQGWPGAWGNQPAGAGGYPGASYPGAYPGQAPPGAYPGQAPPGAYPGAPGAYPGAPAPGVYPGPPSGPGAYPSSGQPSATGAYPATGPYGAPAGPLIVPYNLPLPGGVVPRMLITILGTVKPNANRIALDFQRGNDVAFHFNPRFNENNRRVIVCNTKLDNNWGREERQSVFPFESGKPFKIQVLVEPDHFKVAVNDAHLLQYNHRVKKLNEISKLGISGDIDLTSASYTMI

One assay has as its target T1, hGalectin-3 (Homo sapiens, UniProt P17931).
T1 construct: made in house
As to the kind of experiment: Gal-3 ELISA assay (hGalectin-3 neutralization binding to asialofetuin). The note with it: Table 1; read-out: hGal-3 IC50. For orientation: In an ELISA, binding on a coated surface is turned into a signal by an enzyme label.
For orientation: IC50 means the concentration that inhibits the measured activity by half. Consider `O=C([C@@H]1O[C@H](CO)[C@H](O)[C@H](n2cc(-c3cccc(F)c3)nn2)[C@H]1O)N1CCN(c2ccc(O)cn2)CC1` [Example 2], for which the IC50 was 395 nM.

For the molecule `COc1cc(N2CCN(C(=O)[C@@H]3O[C@H](CO)[C@H](O)[C@H](n4cc(-c5cccc(F)c5)nn4)[C@H]3O)CC2)ccc1O` [Example 5], the IC50 was determined as 360 nM.

With `O=C([C@@H]1O[C@H](CO)[C@H](O)[C@H](n2cc(-c3cccc(F)c3)nn2)[C@H]1O)N1CCN(c2ncc(O)cn2)CC1` [Example 4], the 50% inhibitory concentration (IC50) amounted to 850 nM.

With `O=C([C@@H]1O[C@H](CO)[C@H](O)[C@H](n2cc(-c3cccc(F)c3)nn2)[C@H]1O)N1CCN(c2ccc3[nH]ccc3c2)CC1` [Example 3], the concentration for half-maximal inhibition (IC50) was 480 nM.

The same assay, now with this note: Table 2; read-out: hGal-3 IC50.
For `COc1ccc(N2C[C@H]3C[C@@H]2CN3C(=O)[C@@H]2O[C@H](CO)[C@H](O)[C@H](n3cc(-c4cccc(F)c4)nn3)[C@H]2OC)cc1` [Example 16], the IC50 stood at 530 nM.

The same assay, now with this note: Table 3; read-out: hGal-3 IC50.
With `COc1ccc(N2CC3CC2CN3C(=O)C2OC(CO)C(O)C(n3cc(-c4cccc(F)c4)nn3)C2O)cc1OC` (stereo not shown) [Example 22], the IC50 was 522 nM.

The same assay, now with this note: biotin-tagged hGalectin-3 15 nM, ASF-coated plate; read-out: hGal3 IC50.
For `O=C([C@@H]1O[C@H](CO)[C@H](O)[C@H](n2cc(-c3cccc(F)c3)nn2)[C@H]1O)N1CCN(c2ccc(O)cn2)CC1` [Example 2], the half-inhibitory concentration (IC50) came to 270 nM.

Take `COc1ccc(N2C[C@@H]3C[C@H]2CN3C(=O)C[C@@H]2O[C@H](CO)[C@H](O)[C@H](n3cc(-c4cccc(F)c4)nn3)[C@H]2O)cc1` [Example 27, 2-((2S,3R,4R,5R,6R)-4-(4-(3-fluorophenyl)-1H-1,2,3-triazol-1-yl)-3,5-dihydroxy-6-(hydroxymethyl)tetrahydro-2H-pyran-2-yl)-1-((1S,4S)-5-(4-methoxyphenyl)-2,5-diazabicyclo[2.2.1]heptan-2-yl)ethanone]: the IC50 was found to be 350 nM.

On to `O=C([C@@H]1O[C@H](CO)[C@H](O)[C@H](n2cc(-c3cccc(F)c3)nn2)[C@H]1O)N1CCCN(c2ccc(O)cc2)CC1` [Example 33, ((2R, 3R, 4S, 5R, 6R)-4-(4-(3-fluorophenyl)-1H-1,2,3-triazol-1-yl)-3,5-dihydroxy-6-(hydroxymethyl)tetrahydro-2H-pyran-2-yl)(4-(4-hydroxyphenyl)-1,4-diazepan-1-yl)methanone], for which the IC50 is 480 nM.

Regarding `COc1ccc(N2CC3CC2CN3C(=O)[C@@H]2O[C@H](CO)[C@H](O)[C@H](n3cc(-c4cccc(F)c4)nn3)[C@H]2O)cc1` (stereo in doubt) [Example 31, ((2R,3R,4S,5R,6R)-4-(4-(3-fluorophenyl)-1H-1,2,3-triazol-1-yl)-3,5-dihydroxy-6-(hydroxymethyl)tetrahydro-2H-pyran-2-yl)((1S,4S)-5-(4-methoxyphenyl)-2,5-diazabicyclo[2.2.1]heptan-2-yl)methanone], the concentration for half-maximal inhibition (IC50) stood at 220 nM.

Take `O=C([C@@H]1O[C@H](CO)[C@H](O)[C@H](n2cc(-c3cccc(F)c3)nn2)[C@H]1O)N1CCN(c2ccc3[nH]c(=O)[nH]c3c2)CC1` [Example 9, 5-(4-((2R,3R,4S,5R,6R)-4-(4-(3-fluorophenyl)-1H-1,2,3-triazol-1-yl)-3,5-dihydroxy-6-(hydroxymethyl)tetrahydro-2H-pyran-2-carbonyl)piperazin-1-yl)-1H-benzo[d]imidazol-2(3H)-one]: the half-inhibitory concentration (IC50) was 390 nM.

Turning to `O=C([C@@H]1O[C@H](CO)[C@H](O)[C@H](n2cc(-c3cccc(F)c3)nn2)[C@H]1O)N1C[C@@H]2C[C@H]1CN2c1ccc(O)cc1` [Example 25, ((2R,3R,4S,5R,6R)-4-(4-(3-fluorophenyl)-1H-1,2,3-triazol-1-yl)-3,5-dihydroxy-6-(hydroxymethyl)tetrahydro-2H-pyran-2-yl)((1S,4S)-5-(4-hydroxyphenyl)-2,5-diazabicyclo[2.2.1]heptan-2-yl)methanone], the 50% inhibitory concentration (IC50) is 900 nM.

For the molecule `OCC1CN(C[C@@H]2O[C@H](CO)[C@H](O)[C@H](n3cc(-c4cccc(F)c4)nn3)[C@H]2O)CCN1c1ccc(O)cc1` (single isomer, unassigned) [Example 40a], the half-inhibitory concentration (IC50) was 940 nM.

In the case of `O=C(Nc1ccc(O)cc1)N1C[C@@H]2C[C@H]1CN2C(=O)[C@@H]1O[C@H](CO)[C@H](O)[C@H](n2cc(-c3cccc(F)c3)nn2)[C@H]1O` [Example 30, (1S, 4S)-5-((2R, 3R, 4S, 5R, 6R)-4-(4-(3-fluorophenyl)-1H-1,2,3-triazol-1-yl)-3,5-dihydroxy-6-(hydroxymethyl)tetrahydro-2H-pyran-2-carbonyl)-N-(4-hydroxyphenyl)-2,5-diazabicyclo[2.2.1]heptane-2-carboxamide], the IC50 is 500 nM.

Consider `CC1CN(c2ccc(O)cc2)CCN1C(=O)[C@@H]1O[C@H](CO)[C@H](O)[C@H](n2cc(-c3cccc(F)c3)nn2)[C@H]1O` (single isomer, unassigned) [Example 36], for which the IC50 worked out at 340 nM.

As to `C[C@@H]1CN(c2ccc(O)cc2)[C@@H](C)CN1C(=O)[C@@H]1O[C@H](CO)[C@H](O)[C@H](n2cc(-c3cccc(F)c3)nn2)[C@H]1O` (single isomer, unassigned) [Example 37a], the IC50 came out at 350 nM.

In the case of `O=C([C@@H]1O[C@H](CO)[C@H](O)[C@H](n2cc(-c3cccc(F)c3)nn2)[C@H]1O)N1C[C@@H]2C[C@H]1CN2c1ccc2[nH]ccc2c1` [Example 26, ((1S,4S)-5-(1H-indol-5-yl)-2,5-diazabicyclo[2.2.1]heptan-2-yl)((2R,3R,4S,5R,6R)-4-(4-(3-fluorophenyl)-1H-1,2,3-triazol-1-yl)-3,5-dihydroxy-6-(hydroxymethyl)tetrahydro-2H-pyran-2-yl)methanone], the IC50 is 300 nM.

`COc1ccc(N2C[C@@H]3C[C@H]2CN3C(=O)[C@@H]2O[C@H](CO)[C@H](O)[C@H](n3cc(-c4cccc(F)c4)nn3)[C@H]2O)cc1` [Example 19, ((2R,3R,4S,5R,6R)-4-(4-(3-fluorophenyl)-1H-1,2,3-triazol-1-yl)-3,5-dihydroxy-6-(hydroxymethyl)tetrahydro-2H-pyran-2-yl)((1S,4S)-5-(4-methoxyphenyl)-2,5-diazabicyclo[2.2.1]heptan-2-yl)methanone]: the concentration for half-maximal inhibition (IC50) was 250 nM.

In the case of `CS(=O)(=O)Nc1ccc(N2C[C@@H]3C[C@H]2CN3C(=O)[C@@H]2O[C@H](CO)[C@H](O)[C@H](n3cc(-c4cccc(F)c4)nn3)[C@H]2O)cn1` [Example 42], the half-maximal inhibitory concentration (IC50) amounted to 420 nM.

Take `O=C([C@@H]1O[C@H](CO)[C@H](O)[C@H](n2cc(-c3cccc(F)c3)nn2)[C@H]1O)N1C[C@H]2C[C@@H]1CN2c1ccc2c(c1)OCO2` [Example 32]: the half-inhibitory concentration (IC50) is 180 nM.

For the molecule `CS(=O)(=O)Nc1ccc(N2C[C@@H]3C[C@H]2CN3C(=O)[C@@H]2O[C@H](CO)[C@H](O)[C@H](n3cc(-c4cccc(F)c4)nn3)[C@H]2O)nc1` [Example 41, N-(6-((1S,4S)-5-((2R,3R,4S,5R,6R)-4-(4-(3-fluorophenyl)-1H-1,2,3-triazol-1-yl)-3,5-dihydroxy-6-(hydroxymethyl)tetrahydro-2H-pyran-2-carbonyl)-2,5-diazabicyclo[2.2.1]heptan-2-yl)pyridin-3-yl)methanesulfonamide], the IC50 was determined as 720 nM.

Take `CO[C@@H]1[C@@H](n2cc(-c3cccc(F)c3)nn2)[C@@H](O)[C@@H](CO)O[C@H]1C(=O)N1CCN(c2ccc(O)cc2)CC1` [Example 13, ((2R,3R,4S,5R,6R)-4-(4-(3-fluorophenyl)-1H-1,2,3-triazol-1-yl)-5-hydroxy-6-(hydroxymethyl)-3-methoxytetrahydro-2H-pyran-2-yl)(4-(4-hydroxyphenyl)piperazin-1-yl)methanone]: the IC50 stood at 150 nM.
